From paper PMC9104356, “Characterisation of a Novel Acetyl Xylan Esterase (BaAXE) Screened from the Gut Microbiota of the Common Black Slug (Arion ater)” (Molecules, 2022)

Test system: T1, BaAXE (Gene_id_40363)
T1 construct: full-length 654 bp PCR product (about 218 residues), pDEST42, C-terminal 6xHis, E. coli BL21(DE3), 27 kDa by SDS-PAGE; forward primer CACCATGAAACATGACCAC encodes N-terminus MKHDH
Assay: spectrophotometric 4-nitrophenol release at […] nm, nonlinear Michaelis-Menten fit
Format: biochemical
Conditions: pH 8, 0.1-2 mM substrate; temperature not told for kinetics (standard assay 40 °C, 50 mM sodium phosphate, 150 mM NaCl, 0.01% Triton X-100)

CC(=O)Oc1ccc([N+](=O)[O-])cc1 [4-NPA, 4-nitrophenyl acetate]
Km: 430 µM
